Assay results published in the NIST ThermoML archive (doi:10.1021/je800157v).
± gives the expanded uncertainty stated by the source.

Assays:
[1] = 101 kPa, Liquid
[2] = xn = mol fraction of the nth substance listed; conditions: 101 kPa, Liquid

c1ccccc1 [benzene]
[1]
Conditions	mass density [kg/m3]
288.15 K	884.25 ± 0.31
293.15 K	878.92 ± 0.31
298.15 K	873.58 ± 0.32
303.15 K	868.23 ± 0.33
308.15 K	862.87 ± 0.34
313.15 K	857.5 ± 0.35

c1ccccc1 [benzene] + CCC(C)O
[2], x2 = 0
Conditions	mass density [kg/m3]
288.15 K	884.25 ± 0.31
293.15 K	878.92 ± 0.31
298.15 K	873.58 ± 0.32
303.15 K	868.23 ± 0.33
308.15 K	862.87 ± 0.34
313.15 K	857.5 ± 0.35

CCC(C)O (stereo not given) [butan-2-ol]
[1]
Conditions	mass density [kg/m3]
288.15 K	810.64 ± 0.55
293.15 K	806.59 ± 0.56
298.15 K	802.47 ± 0.56
303.15 K	798.27 ± 0.57
308.15 K	793.97 ± 0.57
313.15 K	789.59 ± 0.58

CCC(C)O (stereo not given) [butan-2-ol] + ClC(Cl)Cl
[2], x1 = 1
Conditions	mass density [kg/m3]
288.15 K	810.64 ± 0.55
293.15 K	806.59 ± 0.56
298.15 K	802.47 ± 0.56
303.15 K	798.27 ± 0.57
308.15 K	793.97 ± 0.57
313.15 K	789.59 ± 0.58

ClC(Cl)Cl [trichloromethane]
[1]
Conditions	mass density [kg/m3]
288.15 K	1498.08 ± 0.92
293.15 K	1488.64 ± 0.91
298.15 K	1479.15 ± 0.89
303.15 K	1469.61 ± 0.88
308.15 K	1460.03 ± 0.86
313.15 K	1450.41 ± 0.85
